ChEMBL document CHEMBL1153884, “Oligonucleotide-polyamine conjugates: influence of length and position of 2'-attached polyamines on duplex stability and antisense effect” (2009)

Key:
[1] = Antisense effect in human 607B cells assessed as down-regulation of bcl2 expression at 100 nM after 48 hrs by Western blot analysis relative to control; format: functional
Nucleic Acid [2] = experiment: Duplex stability of RNA counter strand assessed as melting temperature; format: nucleic-acid assay
Nucleic Acid [3] = experiment: Duplex stability of DNA counter strand assessed as melting temperature; format: nucleic-acid assay

Row | Tm (Nucleic Acid [2]) [°C] | Tm (Nucleic Acid [3]) [°C] | SMILES | Activity [1] [%]
1 | 53.5 | 68.5 | Cc1cn([C@H]2C[C@H](OP(O)(=S)OC[C@H]3O[C@@H](n4ccc(N)nc4=O)[C@H](O)[C@@H]3OP(O)(=S)OC[C@H]3O[C@@H](n4cc(C)c(=O)[nH]c4=O)C[C@@H]3O)[C@@H](COP(O)(=S)O[C@H]3[C@@H](O)[C@H](n4ccc(N)nc4=O)O[C@@H]3COP(O)(=S)O[C@H]3[C@@H](O)[C@H](n4ccc(N)nc4=O)O[C@@H]3COP(O)(=S)O[C@H]3[C@@H](O)[C@H](n4ccc(N)nc4=O)O[C@@H]3COP(O)(=S)O[C@H]3[C@@H](O)[C@H](n4cnc5c(N)ncnc54)O[C@@H]3COP(O)(=S)O[C@H]3[C@@H](O)[C@H](n4cnc5c(=O)[nH]c(N)nc54)O[C@@H]3COP(O)(=S)O[C@H]3[C@@H](O)[C@H](n4ccc(N)nc4=O)O[C@@H]3COP(O)(=S)O[C@H]3[C@@H](O)[C@H](n4cnc5c(=O)[nH]c(N)nc54)O[C@@H]3COP(O)(=S)O[C@H]3C[C@H](n4cc(C)c(=O)[nH]c4=O)O[C@@H]3COP(O)(=S)O[C@H]3[C@@H](O)[C@H](n4cnc5c(=O)[nH]c(N)nc54)O[C@@H]3COP(O)(=S)O[C@H]3[C@@H](O)[C@H](n4ccc(N)nc4=O)O[C@@H]3COP(O)(=S)O[C@H]3[C@@H](O)[C@H](n4cnc5c(=O)[nH]c(N)nc54)O[C@@H]3COP(O)(=S)O[C@H]3[C@@H](O)[C@H](n4ccc(N)nc4=O)O[C@@H]3COP(O)(=S)O[C@H]3[C@@H](O)[C@H](n4ccc(N)nc4=O)O[C@@H]3COP(O)(=S)O[C@H]3[C@@H](O)[C@H](n4cnc5c(N)ncnc54)O[C@@H]3COP(O)(=S)O[C@H]3[C@@H](NCCCNCCCCNCCCN)[C@H](n4ccc(=O)[nH]c4=O)O[C@@H]3CO)O2)c(=O)[nH]c1=O (stereo partly specified) | 19.4
2 | 51.4 | 65.1 | Cc1cn([C@H]2C[C@H](OP(O)(=S)OC[C@H]3O[C@@H](n4ccc(N)nc4=O)[C@H](O)[C@@H]3OP(O)(=S)OC[C@H]3O[C@@H](n4cc(C)c(=O)[nH]c4=O)C[C@@H]3O)[C@@H](COP(O)(=S)O[C@H]3[C@@H](O)[C@H](n4ccc(N)nc4=O)O[C@@H]3COP(O)(=S)O[C@H]3[C@@H](O)[C@H](n4ccc(N)nc4=O)O[C@@H]3COP(O)(=S)O[C@H]3[C@@H](O)[C@H](n4ccc(N)nc4=O)O[C@@H]3COP(O)(=S)O[C@H]3[C@@H](O)[C@H](n4cnc5c(N)ncnc54)O[C@@H]3COP(O)(=S)O[C@H]3[C@@H](O)[C@H](n4cnc5c(=O)[nH]c(N)nc54)O[C@@H]3COP(O)(=S)O[C@H]3[C@@H](O)[C@H](n4ccc(N)nc4=O)O[C@@H]3COP(O)(=S)O[C@H]3[C@@H](O)[C@H](n4cnc5c(=O)[nH]c(N)nc54)O[C@@H]3COP(O)(=S)O[C@H]3C[C@H](n4cc(C)c(=O)[nH]c4=O)O[C@@H]3COP(O)(=S)O[C@H]3[C@@H](O)[C@H](n4cnc5c(=O)[nH]c(N)nc54)O[C@@H]3COP(O)(=S)O[C@H]3[C@@H](O)[C@H](n4ccc(N)nc4=O)O[C@@H]3COP(O)(=S)O[C@H]3[C@@H](O)[C@H](n4cnc5c(=O)[nH]c(N)nc54)O[C@@H]3COP(O)(=S)O[C@H]3[C@@H](O)[C@H](n4ccc(N)nc4=O)O[C@@H]3COP(O)(=S)O[C@H]3[C@@H](O)[C@H](n4ccc(N)nc4=O)O[C@@H]3COP(O)(=S)O[C@H]3[C@@H](O)[C@H](n4cnc5c(N)ncnc54)O[C@@H]3COP(O)(=S)O[C@H]3[C@@H](NCCCCNCCN)[C@H](n4ccc(=O)[nH]c4=O)O[C@@H]3CO)O2)c(=O)[nH]c1=O (stereo partly specified) | 57.6
